Data set [1] has as its system AMPKα. The data set is described as follows: Measurement of AMPK activation effect (AMPKα Thr172 phosphorylation immunoassay) in MCF7 cells. Conditions: 24 hours; for AMPK activation effect at 10 μM (%) / AMPK activation effect at 50 μM (%): relative to untreated cells; for AMPK activation effect AC150: concentration at which AMPK activation reached 150%. Type of data set: cell-based, human. The method, then:
MCF7 cells derived from human breast cancer cells (commercially available from the Korean Cell Line Bank) were used, and the AMPK activation effect of the biguanide derivative was confirmed using an AMPKα immunoassay kit (Invitrogen, Catalog No. KHO0651).
MCF7 cells were cultured in a DMEM medium supplemented with 10% fetal bovine serum. Thereafter, the cultured MCF7 cells were put into a 6-well plate with approximately 5×10^5 cells per well and cultured in an incubator supplied with 5% CO2. Culture media were treated with the derivatives synthesized in the examples at contents of 5, 10 and 50 μM, and then cultured for 24 hours. Metformin hydrochloride was used as the control, and the culture media were treated with 0.05, 0.5, 1, 2, 5 and 10 mM metformin hydrochloride, and then tested in the same manner as described in the derivatives synthesized in the examples. Subsequently, the cells were lysed according to a method presented in the operation manual of the AMPKα immunoassay kit, and 20 μg of a cell lysate was then yielded through protein assay. Thereafter, the AMPK activation effect was obtained by determining the degree of phosphorylation of 172nd threonine residue (Thr172) of the AMPKα from the cell lysate according to the method presented in the operation manual of the AMPKα immunoassay kit. […] A curve graph showing AMPK activation according to the concentration of the treated compounds was plotted based on the obtained AMPKα activation results, the concentration (activation concentration 150, AC150) value of the compound whose AMPK activation reached 150% was calculated using a GraphPad Prism 5.0 program, and the degrees of AMPK activation were obtained when concentrations of the treated biguanide derivatives were 10 μM and 50 μM and the metformin hydrochloride was 50 μM

For data set [2], the system named is HCT116 cells. The data set is described as follows: Measurement of effect of inhibiting cancer cell proliferation (MTT). Type of data set: cell-based, human. The conditions noted are these: Homo sapiens; for inhibition at 100 µM: HCT-116, 100 μM, 48 hours, read-out: Cell Growth Inhibition (%) at 100 μM; for GI50: HCT-116, 48 h. An excerpt: HCT116 cells derived from human colorectal cancer (commercially available from the Korean Cell Line Bank) were used, and the effect of inhibiting cancer cell proliferation of the biguanide derivative was confirmed by measuring the concentration value (cell growth inhibition concentration, GIC50) at which cell growth was inhibited by 50% using a 3-(4,5-dimethylthiazol-2-yl)-2,5-diphenyltetrazolium bromide (MTT) reagent.
First, HCT116 cells were put on a 96-well plate and cultured in a DMEM medium containing 10% fetal bovine serum for 16 hours so that the cellcount in each well was approximately 5,000. Subsequently, to obtain the GIC50 value of each compound, culture media were treated with 100 μM, 25 μM, 6.25 μM, 1.56 μM or 0.39 μM of the compound, and then cultured for 48 hours. Metformin hydrochloride was used as the control, and the culture media were treated with 25, 12.5, 2.5, 0.5, 0.1 mM metformin hydrochloride, and then tested in the same manner as described in the derivatives synthesized in the examples. In order to determine whether the cells survived after treatment with the compounds, MTT was added to the culture media which were then cultured for another 3 hours. Formed formazane crystals were dissolved using dimethyl sulfoxide (DMSO), and the absorbance of the resulting solution was measured at 560 nm. After the 48-hour culture, […] was indicated as cell viability (%) according to each treated concentration. A cell viability curve graph was plotted and the concentration (GIC50) value of the compound at which the growth was inhibited by 50% was calculated to confirm the inhibition effect of cancer cell proliferation. Also, the cell growth viability (%) when the concentration of the treated biguanide derivative and the metformin hydrochloride as the control were 100 μM was shown.

In general, inhibition refers to the drop in the measured response relative to a control, in per cent. Broadly, the GI50 is the concentration at which growth is held to half of that of the control. As usually defined, the melting point is the temperature, or range, at which the solid turns liquid.

The structures appear in SMILES notation. Where only a bound is given, the exact number is not on record here.

`Cc1cccc(NC(=N)NC(=N)N2CCCCC2)c1.Cl` [Example 9, N1-piperidine-N5-(3-methyl)phenyl biguanide hydrochloride] registered a melting point of 239 to 240 °C. Besides, in data set [1], the “AMPK activation effect at 10 μM (%)” value is 149%, the “AMPK activation effect at 50 μM (%)” value came to 255% and the “AMPK activation effect AC150” value came to 12.4 µM. In addition, in data set [2], the inhibition at 100 µM was 79.1% and it took 13.4 µM to inhibit growth by half (GI50).
The molecule `CN1CCN(C(=N)NC(=N)Nc2ccc(OC(F)(F)F)cc2)CC1.Cl` [Example 35, N1-(4-methyl)piperazine-N5-(4-trifluoromethoxy)phenyl biguanide hydrochloride] gave a melting point of 258 to 259 °C. In addition, in data set [1], the “AMPK activation effect at 10 μM (%)” value is reported as 207%, the “AMPK activation effect at 50 μM (%)” value was found to be 542% and the “AMPK activation effect AC150” value came out at 5.0 µM. Further, in data set [2], the inhibition at 100 µM came out at 76.5% and the 50% growth inhibitory concentration (GI50) is 46.7 µM.
Consider `Cl.N=C(NC(=N)N1CCCCC1)Nc1ccccc1F` [Example 15, N1-piperidine-N5-(2-fluoro)phenyl biguanide hydrochloride], for which the melting point was 155 to 157 °C. Also, in data set [1], the “AMPK activation effect at 50 μM (%)” value amounted to 100% and the “AMPK activation effect AC150” value is greater than 50 µM. In data set [2], the inhibition at 100 µM worked out at 39.5% and the GI50 is greater than 100 µM.
Turning to `Cl.N=C(NC(=N)N1CCCCC1)Nc1ccc(Cl)cc1` [Example 18, N1-piperidine-N5-(4-chloro)phenyl biguanide hydrochloride], the melting point fell in the range of 275 to 276 °C. Besides, in data set [1], the “AMPK activation effect at 10 μM (%)” value worked out at 281% and the “AMPK activation effect AC150” value stood at 3.4 µM. Also, in data set [2], the inhibition at 100 µM came to 97.7% and it took 17 µM to inhibit growth by half (GI50).
With `CC(=O)Nc1cccc(NC(=N)NC(=N)N2CCCCC2)c1.Cl` [Example 39, N1-piperidine-N5-(3-acetamide)phenyl biguanide hydrochloride], the melting point was 265 to 267 °C. In data set [1], the “AMPK activation effect at 10 μM (%)” value worked out at 100%, the “AMPK activation effect at 50 μM (%)” value is recorded as 145% and the “AMPK activation effect AC150” value is greater than 50 µM. Moreover, in data set [2], the inhibition at 100 µM stood at 25.5% and the 50% growth inhibitory concentration (GI50) was greater than 100 µM.
With `Cl.N=C(NC(=N)N1CCCC1)Nc1cccc(OC(F)(F)F)c1` [Example 28, N1-pyrrolidine-N5-(3-trifluoromethoxy)phenyl biguanide hydrochloride], the melting point lay in the range of 261 to 262 °C. For the same molecule, in data set [1], the “AMPK activation effect at 10 μM (%)” value came to 158%, the “AMPK activation effect at 50 μM (%)” value stood at 424% and the “AMPK activation effect AC150” value worked out at 6.9 µM. In data set [2], the inhibition at 100 µM was 97.6% and the GI50 was found to be 19 µM.
Turning to `COc1cc(NC(=N)NC(=N)N2CCCCC2)cc(OC)c1.Cl` [Example 45, N1-piperidine-N5-(3,5-dimethoxy)phenyl biguanide hydrochloride], the melting point was in the range of 234 to 236 °C. In addition, in data set [1], the “AMPK activation effect at 10 μM (%)” value was 232%, the “AMPK activation effect at 50 μM (%)” value is listed as 249% and the “AMPK activation effect AC150” value turned out to be 2.7 µM. Further, in data set [2], the inhibition at 100 µM was 41.3% and the GI50 was greater than 100 µM.
With `Cl.N=C(NC(=N)N1CCCCC1)Nc1ccc(F)c(OC(F)(F)F)c1` [Example 50, N1-piperidine-N5-(4-fluoro-3-trifluoromethoxy)phenyl biguanide hydrochloride], the melting point lay within 260 to 261 °C. Also, in data set [1], the “AMPK activation effect at 10 μM (%)” value is listed as 127% and the “AMPK activation effect AC150” value was greater than 50 µM. Further, in data set [2], the inhibition at 100 µM turned out to be 97% and the concentration for 50% growth inhibition (GI50) was found to be 3.9 µM.
`Cl.N=C(NC(=N)N1CCCCC1)Nc1cccc(Br)c1` [Example 7, N1-piperidine-N5-(3-bromo)phenyl biguanide hydrochloride]: the melting point fell in the range of 263 to 264 °C. In data set [1], the “AMPK activation effect at 10 μM (%)” value is 526% and the “AMPK activation effect AC150” value was determined as 0.9 µM. Moreover, in data set [2], the inhibition at 100 µM was 97.2% and the GI50 came to 7 µM.
On the same counts, the results for `Cl.N=C(NC(=N)N1CCCCC1)Nc1cccc(C(F)(F)F)c1` [Example 24, N1-piperidine-N5-(3-trifluoromethyl)phenyl biguanide hydrochloride] are 264 to 265 °C, 388%, 2.6 µM, 97.6% and 6.9 µM.
Molecule `Cl.N=C(NC(=N)N1CCCCC1)Nc1cccc(F)c1` [Example 16, N1-piperidine-N5-(3-fluoro)phenyl biguanide hydrochloride] yielded a melting point of 201 to 202 °C. Besides, in data set [1], the “AMPK activation effect at 50 μM (%)” value is given as 378% and the “AMPK activation effect AC150” value was determined as 9.9 µM. Besides, in data set [2], the inhibition at 100 µM turned out to be 67.2% and the GI50 was 72.4 µM.
For the molecule `Cl.N=C(NC(=N)N1CCCCC1)Nc1cc(Cl)cc(Cl)c1` [Example 61, N1-piperidine-N5-(3,5-dichloro)phenyl biguanide hydrochloride], the melting point was 230 to 231 °C. Further, in data set [1], the “AMPK activation effect at 10 μM (%)” value amounted to 239% and the “AMPK activation effect AC150” value was 3.3 µM. Besides, in data set [2], the inhibition at 100 µM turned out to be 97.7% and halving of growth (GI50) required 7.1 µM.
Turning to `Cl.N=C(NC(=N)N1CCCCC1)Nc1cccc(N)c1` [Example 36, N1-piperidine-N5-(3-amino)phenyl biguanide hydrochloride], the melting point lay in the range of 220 to 222 °C. In addition, in data set [1], the “AMPK activation effect at 10 μM (%)” value worked out at 62%, the “AMPK activation effect at 50 μM (%)” value is given as 175% and the “AMPK activation effect AC150” value worked out at 36.8 µM. Moreover, in data set [2], the inhibition at 100 µM is 43.6% and the GI50 was greater than 100 µM.
Consider `Cl.N=C(NC(=N)N1CCCCC1)Nc1cccc(CO)c1` [Example 12, N1-piperidine-N5-(3-hydroxymethyl)phenyl biguanide hydrochloride], for which the melting point was 225 to 227 °C. In data set [1], the “AMPK activation effect at 10 μM (%)” value turned out to be 107%, the “AMPK activation effect at 50 μM (%)” value is listed as 149% and the “AMPK activation effect AC150” value is greater than 50 µM. Also, in data set [2], the inhibition at 100 µM is 17.6% and the GI50 was greater than 100 µM.
On to `Cl.N=C(NC(=N)N1CCCCC1)Nc1cc(Br)cc(OC(F)(F)F)c1` [Example 67, N1-piperidine-N5-(3-bromo-5-trifluoromethoxy)phenyl biguanide hydrochloride], for which the melting point was in the range of 205 to 207 °C. Besides, the “AMPK activation effect AC150” value in data set [1] was determined as 5.0 µM. For the same molecule, in data set [2], the inhibition at 100 µM is 97.1% and halving of growth (GI50) required 2.9 µM.
`Cl.N=C(NC(=N)N1CCCC1)Nc1cccc(Cl)c1` [Example 19, N1-pyrrolidine-N5-(3-chloro)phenyl biguanide hydrochloride] registered a melting point of 170 to 172 °C. Moreover, in data set [1], the “AMPK activation effect at 10 μM (%)” value stood at 176%, the “AMPK activation effect at 50 μM (%)” value came out at 586% and the “AMPK activation effect AC150” value was found to be 4.4 µM. In data set [2], the inhibition at 100 µM was 74% and the GI50 stood at 55.9 µM.
For `Cl.N=C(NC(=N)N1CCC1)Nc1ccc(OC(F)(F)F)c(Cl)c1` [Example 55, N1-azetidine-N5-(3-chloro-4-trifluoromethoxy)phenyl biguanide hydrochloride], the melting point lay in the range of 254 to 255 °C. Further, in data set [1], the “AMPK activation effect at 10 μM (%)” value is given as 342% and the “AMPK activation effect AC150” value came to 2.6 µM. In addition, in data set [2], the inhibition at 100 µM amounted to 101% and the GI50 turned out to be 7.3 µM.
